Test results reported in US4783442A, “B-cell differentiating peptides” (Ortho Pharmaceutical Corporation, priority 1986, dated 1988).
Where a SMILES comes first, the peptide text is derived from it.

Legend:
pro-Lyb-2 cells [1] = assay: Induction assay: Lyb-2 expression (B-cell differentiation); assay type: cell-based, mouse; conditions: 3 hr incubation; compared with natural bursopoietin at the same concentration
Description: To determine the activity and immunological characteristics of one of the subject peptide, certain related peptides prepared in the above Examples, and natural bursopoietin, an induction assay was carried out substantially as described in Audhya, et al., Proc. Natl. Acad. Sci. USA, 81,2847 (1984).
In brief, prothymocytes (Thy-1^-) and pro-Lyb-2 cells were coenriched from B6-Lyb-2.1 congenic mouse spleen by bovine serum albumin density gradient centrifugation (Path-O-Cyte 5, lot 35, 1 ml of 35/29/26/23/18/12%). The 26/23 and 23/18 interface layers were combined, and Thy-1^+ and Lyb-2^+ cells were removed by reaction with monoclonal Thy-1.2 and Lyb-2.1 antibodies prepared according to Scheid, et al., Immunogenetics, 9, 423-433 (1979), and adherence to plates coated with affinity-purified rabbit anti-mouse F(ab)2. The washed nonadherent cells were used for both assays. This starting population contained 30-40% prothymocytes and 30-40% pro-Lyb-2 cells (known to represent separate committed precursor populations) as described in Scheid, et al., J. Exp. Med., 147, 1727-1743 (1978).
Cells (5×10^6 cells per 0.5 ml of RPMI 1640 medium) were incubated in 5-ml plastic tubes with equal volumes of test compound in serial dilution in RPMI 1640 medium in a humidified 5% CO2 atmosphere for 3 hr. […]

pro-Lyb-2 cells [2] = conditions: from the referenced articles; cited from earlier work

Row | Compound | activity in differentiation induction assay (FIG. 1) (pro-Lyb-2 cells [1]) | induction of differentiation of T-cells and B-cells (pro-Lyb-2 cells [2])
1 | NCCCC[C@H](N)C(=O)N[C@@H](Cc1c[nH]cn1)C(=O)NCC(N)=O [H-LYS-HIS-GLY-NH2, L-Lysyl-L-Histidyl-Glycineamide] (H-Lys-His-Gly-NH2) | possessed the activity of the natural isolate | –
2 | ubiquitin | – | nonselectively induce the differentiation of both T-cells and B-cells
